Here are results for 33 compounds from PubChem BioAssay (NCI).

Test systems include DU-145 prostate; MDA-N; DLD-1 colon; HOP-18 NSCLC; LXFL 529 NSCLC.
Common to all, as to assay: DTP human tumour cell line panel, 48 h

The term GI50 denotes the concentration that inhibits growth by half. The term TGI denotes the concentration giving total growth inhibition.

Where “and” joins values, the source holds several entries; their conditions need not be identical. Equal entries are not always repeated.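 Exposure lasted 48 hours, with cells grown in 96-well plates and compounds tested at five concentrations. GI50 is the concentration that inhibits growth by half. The concentration for full growth arrest is given as TGI.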 *1 amine or outer side, *2 acyl side, *3 side chain or, on linkers, in order; H or OH if unused. Where a SMILES comes first, the peptide text is derived from it. Bridges are numbered along the chain shown (N, C = ends). [ ]: non-standard residue; d: D form. The star is where a group is joined. ξ: configuration not given here. X19 = O=C([C@H](N[*:1])c1ccc(O[C@H]2O[C@@H](CO)[C@@H](O)[C@@H](O)[C@H]2O[C@@H]2O[C@H](CO)[C@H](O)[C@H](O)[C@@H]2O)cc1)[*:2]; X18 = NC(=O)[C@@H](O[*:3])[C@H](N[*:1])C(=O)[*:2]; Propanoyl(3-(4-MeO-Ph)) = COc1ccc(CCC(=O)*)cc1; X20 = O=C([C@H](N[*:1])c1ccc(O)c(Cl)c1)[*:2]; d(aThr) = C[C@@H](O)[C@@H](N)C(=O)O; dHpg = N[C@@H](C(=O)O)c1ccc(O)cc1; Thr(3ξ) = CC(O)[C@H](N)C(=O)O; dNMeL = CN[C@H](CC(C)C)C(=O)O; X17 = CC(C)C/C=C/C=C/C(=O)*; dOrn = NCCC[C@@H](N)C(=O)O; OBn = c1ccc(CO*)cc1; ξLac = CC(O)C(=O)O

As for `O=S(=O)(NCCCNc1cc(-c2cn(-c3ccccc3)nc2-c2cccc(O)c2)ccn1)c1cccc2ccccc12`, in the experiment on DU-145 prostate, the GI50 was 4 µM and the total growth inhibition concentration (TGI) is over 100 µM.
`CC(C)NC(=O)OCc1c(COC(=O)NC(C)C)c(-c2ccc[n+](COC(=O)C3CC3)c2)n2c1CCC2` had a TGI in the experiment on DU-145 prostate of over 100 µM.
Consider `COc1ccc(CCC(=O)OC(C)[C@H](NC(=O)[C@@H](CC(C)C)N(C)C(=O)[C@@H]2CCCN2C(=O)C(C)O)C(=O)OCc2ccccc2)cc1` (stereo partly drawn) (H-[ξLac]P[dNMeL][Thr(3ξ)](Propanoyl(3-(4-MeO-Ph)))-OBn), for which the total growth inhibition concentration (TGI) with DU-145 prostate and in the experiment with MDA-N was over 100 µM throughout.
On to `C#Cc1cccc(Nc2ncnc3ccc(-c4cnc(Cl)c(NS(C)(=O)=O)c4)cc23)c1`, for which, in the experiment with DU-145 prostate, the GI50 is 0.434 µM and the concentration for total growth inhibition (TGI) worked out at 6.99 µM.
Regarding `CN(C)CCCN=c1cc2c(=O)n(CCCN(C)C)c(=O)c3c(NCCCN(C)C)cc4c(O)n(CCCN(C)C)c(=O)c1c4c3-2`, in the experiment with DU-145 prostate, the GI50 was 2.5 µM and the TGI was found to be 9.51 µM.
Regarding `c1ccc2c(c1)nnn2CNc1ccc(N2CCOCC2)cc1`, the total growth inhibition concentration (TGI) with DLD-1 colon, in the experiment with HOP-18 NSCLC and in the experiment with LXFL 529 NSCLC was over 100 µM in each case.
Take `O=C1/C(=C/c2ccccc2Br)COc2ccc(O)c(O)c21`: in the experiment with DU-145 prostate, the GI50 was 1.49 µM and the TGI is 3.23 µM.
For `CCCC#CC(O)(C(=O)OC1CCN(C)CC1)C1CCCCC1` (stereo not drawn), the TGI with DU-145 prostate and in the experiment with MDA-N was over 100 µM in each case.
Consider `COc1cc2c(Nc3ccc(Br)cc3F)ncnc2cc1OCC1CCN(C)CC1`, for which, in the experiment with DU-145 prostate, the GI50 was 1.31 µM and 3.98 µM; the TGI was 15.1 µM and > 10 µM.
As to `CC1=C2C(=O)C(C)(C)C=C2C(=O)[C@](C)(O)C12CC2`, the concentration for total growth inhibition (TGI) with DLD-1 colon, in the experiment with HOP-18 NSCLC and with LXFL 529 NSCLC was over 1 µM in each case.
As to `NC(=O)c1cc(Cl)ccc1NC(=O)c1ccccc1-c1ccccc1`, in the experiment on DU-145 prostate, the GI50 was 0.597 µM and the total growth inhibition concentration (TGI) was determined as 16 µM.
On to `COc1cc2c(=O)n(CCCn3ccnc3)c3c4cc5c(cc4ccc3c2cc1OC)OCO5`, for which, in the experiment on DU-145 prostate, the GI50 was 0.51 µM and the TGI was over 100 µM.
`C[C@@H](Oc1cc(NS(=O)(=O)N2CCC2)nc(SCc2cccc(F)c2F)n1)[C@@H](O)CO`: in the experiment on DU-145 prostate, the GI50 is over 100 µM and the concentration for total growth inhibition (TGI) is over 100 µM.
With `N=C1C(c2nc3ccccc3s2)=C(O)CN1c1ccc(Cl)cc1Cl`, in the experiment with DU-145 prostate, the GI50 is 18.9 µM and the TGI worked out at 63.7 µM.
With `N#Cc1nn(C2OC(COC(=O)c3ccccc3)C(OC(=O)c3ccccc3)C2OC(=O)c2ccccc2)c2nc[nH]c(=O)c12` (stereo not drawn), the TGI with DU-145 prostate and in the experiment on MDA-N was over 100 µM throughout.
As to `Cc1cccc2c1NC(=O)[C@@]21[C@H](C(=O)c2ccccc2)[C@]2(C(=O)Nc3ccccc32)[C@H]2CCCN21`, in the experiment with DU-145 prostate, the GI50 was over 100 µM and the concentration for total growth inhibition (TGI) was over 100 µM.
Turning to `O=C1/C(=C/c2ccccc2)CN(CCC(=O)N2C/C(=C\c3ccccc3)C(=O)/C(=C/c3ccccc3)C2)C/C1=C\c1ccccc1`, in the experiment with DU-145 prostate, the GI50 is 21.1 µM and the concentration for total growth inhibition (TGI) was determined as 73.9 µM.
Regarding `CC(C)C/C=C/C=C/C(=O)N[C@@H](CC(N)=O)C(=O)N[C@@H]1C(=O)N[C@H](c2ccc(O)cc2)C(=O)N[C@H](CCCN)C(=O)N[C@H]([C@@H](C)O)C(=O)N[C@H](c2ccc(O)cc2)C(=O)N[C@H](c2ccc(O)cc2)C(=O)N[C@H]([C@H](C)O)C(=O)N[C@H](Cc2ccccc2)C(=O)N[C@H](CCCN)C(=O)N[C@H](c2ccc(O[C@H]3O[C@@H](CO)[C@@H](O)[C@@H](O)[C@H]3O[C@@H]3O[C@H](CO)[C@H](O)[C@H](O)[C@@H]3O)cc2)C(=O)N[C@H]([C@H](C)O)C(=O)N[C@H](c2ccc(O)cc2)C(=O)NCC(=O)N[C@H](CC(C)C)C(=O)N[C@H](C)C(=O)N[C@H](c2ccc(O)c(Cl)c2)C(=O)O[C@@H]1C(N)=O` (X17-N[X18][dHpg][dOrn][d(aThr)][dHpg][dHpg][dT][dF][dOrn][X19][dT][dHpg]G[dL][dA][X20]; ester 2-C), in the experiment on DU-145 prostate, the GI50 is 37.4 µM and the concentration for total growth inhibition (TGI) is over 100 µM.
For `O=C1CCC2=C3C4CCCCC4C(=O)C4CCCC(OC2C1)C34` (stereo not drawn), in that order: 0.357 µM and 2.1 µM.
Turning to `COc1ccc(C(=O)C(Br)C(Br)C(=O)O)cc1` (stereo not drawn), the concentration for total growth inhibition (TGI) with DU-145 prostate and with MDA-N was over 100 µM each time.
The compound `ClC1(c2ccccc2)c2ccc(Br)cc2-c2cc(Br)ccc21` returned a TGI in the experiment with DU-145 prostate of 48.1 µM.
With `CCOC(=O)/C(C#N)=C\C=C1/C=CNC2=NCCN21`, the TGI in the experiment with DLD-1 colon, in the experiment on HOP-18 NSCLC and with LXFL 529 NSCLC was over 100 µM throughout.
`NCCCn1c2c(c3cc4c(cc3c1=O)OCO4)C(=O)c1ccccc1-2`: in the experiment on DU-145 prostate, the GI50 was 0.907 µM and the concentration for total growth inhibition (TGI) was found to be 2.63 µM.
Take `Cc1ccc(C(=O)CCC2C(=O)CC(C)(C)CC2=O)cc1`: the TGI in the experiment with DU-145 prostate and in the experiment on MDA-N was over 100 µM throughout.
Consider `COc1cc([C@@H]2c3cc4c(cc3[C@@H](NCc3ccc(C#N)cc3)C3COC(=O)[C@@H]32)OCO4)cc(OC)c1O` (stereo partly drawn), for which the TGI was 5.33 µM in the experiment on DLD-1 colon, over 100 µM in the experiment with HOP-18 NSCLC and 50.2 µM in the experiment on LXFL 529 NSCLC.
In the case of `CCN(CC)C(=O)CNC(=O)OC(C)(C)C`, the TGI in the experiment on DLD-1 colon is over 100 µM.
For `O=C(CN1CCOCC1)CC(O)(C(F)(F)F)C(F)(F)F`, the concentration for total growth inhibition (TGI) in the experiment on DU-145 prostate and in the experiment with MDA-N was over 100 µM each time.
In the experiment on LXFL 529 NSCLC, `CCCCCCCC(=O)OCC1OC(n2cc(F)c(=O)[nH]c2=O)C(NC(=O)OCc2ccccc2)C(OC(=O)CCCCCCC)C1O` (stereo not drawn) had a total growth inhibition concentration (TGI) of over 100 µM.
Take `CC(Oc1ccc(OCC2CCCCC2)cc1)C(=O)O` (stereo not drawn): the TGI with DLD-1 colon, with HOP-18 NSCLC and in the experiment on LXFL 529 NSCLC was over 100 µM each time.
For `NCC1OC(n2cnc3c(=O)[nH]c(N)nc32)C(O)C1O` (stereo not drawn), the TGI in the experiment on DU-145 prostate and with MDA-N was over 100 µM throughout.
On to `CC([C@H]1CCC2C3CCC4CC5(CC[C@]4(C)C3CC[C@@]21C)c1ccccc1C(=O)N5C)N(C)C` (stereo partly drawn), for which the total growth inhibition concentration (TGI) in the experiment with DLD-1 colon, with HOP-18 NSCLC and in the experiment on LXFL 529 NSCLC was over 100 µM throughout.
`CC(=O)O[C@H]1C(=O)[C@@]2(C)[C@H]([C@H](OC(=O)c3ccccc3)[C@]3(O)C[C@H](OC(=O)[C@H](O)[C@@H](NC(=O)CC(C)C)c4ccccc4)C(C)=C1C3(C)C)[C@]1(OC(C)=O)CO[C@@H]1C[C@@H]2O`: the TGI in the experiment with DU-145 prostate is 0.188 µM; in the experiment with MDA-N, over 10 µM.
Turning to `CN(C1=NS(=O)(=O)N=C(N(C)c2ccccc2)O1)c1ccccc1`, the TGI is 61.7 µM in the experiment with DU-145 prostate and 32.6 µM in the experiment with MDA-N.
